Like-named read-outs stand apart in the source and are kept apart here.
Key:
CHKA [1] = target: T1, CHKA (Homo sapiens, UniProt P35790); experiment: PISA thermal profiling, K562 cell lysates; type: binding; set-up: endogenous in cells; conditions: 30 µM; for stabilisation of CHKA (PISA): K562 cell lysates; for effect_CETSA_Lysate (PISA amplitude), CHKA: K562 lysate, 15 min, n=3
Protocol: Experiments were performed as described earlier with few modifications. In short, 3 replicates of intact HepG2 cells were treated with 30 µM UNC0638, […] or corresponding volume of DMSO in medium-free experimental buffer for 60 min at 37 °C with end-over-end rotation. For lysates: Washed K562 cells were resuspended in medium-free experimental buffer and lysed by three freeze-thaw cycles. Lysate was centrifugated 20,000 × g for 20 min at 4 °C to remove cell debris. The cleared lysate was treated with 30 µM UNC0638, UNC0373 or corresponding volume of DMSO for 15 min at RT with end-over-end rotation. Each treated cell suspension or lysate was divided into 12 aliquots and subjected to a 12-step heat gradient from 44 °C to 64 °C. All the temperature points were pooled together to form […] individual samples. Soluble fraction was separated from precipitated proteins […]
by centrifugation at 30,000 × g for 20 min at 4 °C. The soluble fractions were collected to fresh tubes and further processed to be analysed with mass spectrometry. Sample handling, TMT labelling, LC-MS/MS analysis, protein identification and data analysis was performed as described earlier.[12] […]
Figure S3: Western blot of elution fractions after chemical pulldown with UNC0965 in MCF7 cell extract pre-incubated with indicated compounds (20 μM) or DMSO.
Figure S4: PISA thermal profiling results in K562 cell lysates. A) Volcano plots of UNC0638 and […]
Dashed lines represent amplitude > 0.05, < - 0.05 and log10(adjusted p-values) > 2 (two-sided two sample t-test, Benjamini-Hochberg corrected, n = 3).
6,924 proteins were identified. B) UNC0737 stabilises CHKA stronger than UNC0638. […]
Target sequence in this assay (P35790 whole entry): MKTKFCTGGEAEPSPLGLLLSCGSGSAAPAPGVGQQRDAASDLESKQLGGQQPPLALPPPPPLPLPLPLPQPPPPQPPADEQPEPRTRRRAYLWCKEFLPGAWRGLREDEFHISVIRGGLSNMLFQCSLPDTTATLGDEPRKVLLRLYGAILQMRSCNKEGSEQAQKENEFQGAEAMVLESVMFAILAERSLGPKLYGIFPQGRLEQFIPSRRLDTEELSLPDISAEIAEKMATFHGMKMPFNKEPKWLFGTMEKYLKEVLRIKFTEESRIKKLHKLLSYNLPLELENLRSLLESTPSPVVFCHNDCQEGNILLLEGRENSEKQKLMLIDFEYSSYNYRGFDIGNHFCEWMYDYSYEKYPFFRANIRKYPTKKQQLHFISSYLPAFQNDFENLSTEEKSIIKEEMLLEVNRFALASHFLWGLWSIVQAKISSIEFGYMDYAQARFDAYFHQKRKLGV

CHKA [2] = target: T1, CHKA; experiment: Isothermal calorimetry (ITC); type: binding; set-up: host or cells: E. coli BL21(DE3)
Protocol: mM NaCl, 5% glycerol, 500 mM imidazole, 0.5% TCEP, pH 7.5), the eluent was concentrated, and further purified by size exclusion chromatography using a HiLoad 16/600 Superdex S200 column (Cytiva) pre-equilibrated in Buffer C (20 mM HEPES, 150 mM NaCl, pH 7.5). The resulting protein purity was assessed by SDS-PAGE, and protein identity was confirmed by tryptic digest analysis. Protein concentration was determined to be 35.5 mg/mL, and was calculated using a theoretical molar extinction coefficient of 58830 M-1cm-1 as determined by ProtParam.[5]
Isothermal Calorimetry (ITC)
ITC experiments were performed in a buffer containing 20 mM HEPES pH 7.5 and 200 mM NaCl, using an VP-ITC microcalorimeter (MicroCal) at 15 °C. The protein concentration was 200 µM and compounds were tested at 20 µM. The titrations were conducted using an initial injection of 4 μL followed by further 29 injections of 8 μL each. Thermodynamic parameters were calculated using ΔG = ΔH − TΔS = −RT ln KB, where ΔG, ΔH, and ΔS are the changes in free energy, enthalpy, and entropy of binding, respectively. Single binding models were employed to fit the data. […]
Target sequence in this assay (P35790 75-457 limits assumed): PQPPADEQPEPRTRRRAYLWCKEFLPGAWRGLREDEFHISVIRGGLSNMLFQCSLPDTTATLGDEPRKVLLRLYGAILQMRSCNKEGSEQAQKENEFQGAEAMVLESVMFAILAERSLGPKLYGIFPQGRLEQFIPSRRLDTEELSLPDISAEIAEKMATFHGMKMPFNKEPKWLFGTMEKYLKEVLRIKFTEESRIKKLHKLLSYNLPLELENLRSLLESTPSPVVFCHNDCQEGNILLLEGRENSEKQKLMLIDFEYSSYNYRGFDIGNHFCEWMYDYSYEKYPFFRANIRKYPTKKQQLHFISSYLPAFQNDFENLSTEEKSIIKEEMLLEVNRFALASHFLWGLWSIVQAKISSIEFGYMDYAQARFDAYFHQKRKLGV

## COc1cc2c(NC3CCN(C(C)C)CC3)nc(C3CCCCC3)nc2cc1OCCCN1CCCC1 [UNC0638]
CHKA [1]
  stabilisation of CHKA (PISA): selective stabilisation of CHKA
  effect_CETSA_Lysate (PISA amplitude), CHKA: 0.202
CHKA [2]; ITC, 15 °C, recombinant human CHKA, read-out: KD
  Kd: 0.27 µM

## COc1cc2c(N(C)C3CCN(C(C)C)CC3)nc(C3CCCCC3)nc2cc1OCCCN1CCCC1 [UNC0737]
CHKA [1]
  stabilisation of CHKA (PISA): selective stabilisation of CHKA
  effect_CETSA_Lysate (PISA amplitude), CHKA: 0.504
CHKA [2]
  Kd: 0.0593 µM
